Measured values: PubChem BioAssay AID2510 (The Scripps Research Institute Molecular Screening Center, 2010)

Molecular target: Mucolipin-3 (Homo sapiens) (UniProt Q8TDD5)
Assay: human mucolipin-3 activators, concentration-response – cell-based, calcium fluorescence, dose response (AID 2510)
Conditions: TRPML3-expressing cells, agonist mode

Chain of Mucolipin-3 (Homo sapiens) (Q8TDD5 whole entry, looked up): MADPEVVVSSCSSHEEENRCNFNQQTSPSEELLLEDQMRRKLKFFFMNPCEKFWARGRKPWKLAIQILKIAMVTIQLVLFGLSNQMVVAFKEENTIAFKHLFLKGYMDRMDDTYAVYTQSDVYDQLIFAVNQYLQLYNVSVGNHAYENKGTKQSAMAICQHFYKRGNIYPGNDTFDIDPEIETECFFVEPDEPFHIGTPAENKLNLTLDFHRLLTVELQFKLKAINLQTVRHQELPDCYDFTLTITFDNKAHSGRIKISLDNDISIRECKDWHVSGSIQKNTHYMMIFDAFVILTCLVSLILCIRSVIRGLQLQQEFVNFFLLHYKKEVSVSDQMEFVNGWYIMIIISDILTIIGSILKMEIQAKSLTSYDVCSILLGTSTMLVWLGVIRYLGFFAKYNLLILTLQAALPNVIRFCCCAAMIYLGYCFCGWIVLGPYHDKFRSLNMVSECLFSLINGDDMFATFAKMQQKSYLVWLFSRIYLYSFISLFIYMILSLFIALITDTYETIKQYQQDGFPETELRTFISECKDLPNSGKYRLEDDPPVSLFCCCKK

- EC50: 1.8 µM
SMILES: CCOc1ccc(S(=O)(=O)N2CCCCC2)c(C)c1C
